Biological target: TNFα (Homo sapiens (Human), UniProt P01375)
Assay: TNF induced HEK-Blue assay
Format: cell-based
Conditions: TNFα 0.5 ng/ml; HEK-Blue-CD40L cells, NF-κB-driven secreted alkaline phosphatase reporter; 18 h
Method: TNF or CD40L-induced HEK-Blue Assay Test compounds serially diluted in DMSO were plated in an assay plate (Labcyte, Cat. #LP-0200) at final concentrations ranging from 0.004 μM to 25μM. TNFα (final concentration 0.5 ng/ml) or CD4OL (final concentration 30 ng/ml) in assay buffer [DMEM, 4.5 g/l glucose (Gibco, Cat. 21063-029), 10% FBS (Sigma, F4135), 1% Penicillin-Streptomycin (Gibco, Cat. 15140-122), 1% Anti-Anti (Gibco, Cat. 15240-112) and 2 mM L-glutamine (Gibco, Cat. 25030-081)] was then added to the assay plate. After a 30 minute pre-incubation at 37° C. and 5% CO2, HEK-Blue-CD40L cells (InvivoGen, Cat. Code hkb-cd40) containing a NF-κB-driven secreted alkaline phosphatase reporter gene were seeded into the assay plate at a density of 20,000 cells per well. This plate was then incubated for 18 h at 37° C. and 5% CO2. Secreted alkaline phosphatase expression was measured using QUANTI-Blue (InvivoGen, Cat. Code rep-qb1) according to manufacturer's specifications and the assay plate was read on a PerkinElmer Envision at 620 nm. Inhibition data for the test compound over a range of concentrations was plotted as percentage inhibition of the test compound (100%=maximum inhibition). IC50 values were determined after correcting for background [(sample read−mean of low control)/(mean of high control−mean of low control)] where by the low control is DMSO without stimulation and high control is DMSO with stimulation. The IC50 is defined as the concentration of test compound which produces 50% inhibition and was quantified using the 4 parameter logistic equation to fit the data.

TNFα, sequence (P01375 77-233): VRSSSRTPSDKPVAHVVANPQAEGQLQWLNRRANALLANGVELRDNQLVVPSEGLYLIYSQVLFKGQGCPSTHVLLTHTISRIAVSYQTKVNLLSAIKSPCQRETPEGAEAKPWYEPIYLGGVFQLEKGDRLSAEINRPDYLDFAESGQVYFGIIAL

COCCOc1ccc(-c2ccc3nc4c(n3n2)[C@@H](c2ccccc2OC(F)F)NC[C@H]4O)cc1 (racemic) [Example 34, (+/−)-cis-9-(2-(difluoromethoxy)phenyl)-2-(4-(2-methoxyethoxy)phenyl)-6,7,8,9-tetrahydropyrido[4′,3′:4,5]imidazo[1,2-b]pyridazin-6-ol]
IC50: 1 to 10 µM

CCOc1ccc(-c2ccc3nc4c(n3n2)[C@@H](c2ccccc2OC(F)F)NC[C@H]4O)cc1 (racemic) [Example 31, (+/−)-cis-9-(2-(difluoromethoxy)phenyl)-2-(4-ethoxyphenyl)-6,7,8,9-tetrahydropyrido[4′,3′:4,5]imidazo [1,2-b]pyridazin-6-ol]
IC50: 1 to 10 µM

CC(C)(O)c1ccc(-c2ccc3nc4c(n3n2)C(c2ccccc2OC(F)F)OCC4(O)c2ccncc2)cc1 (stereo not shown) [Example 60, 9-(2-(Difluoromethoxy)phenyl)-2-(4-(2-hydroxypropan-2-yl)phenyl)-6-(pyridin-4-yl)-6,9-dihydro-7H-pyrano[4′,3′:4,5]imidazo[1,2-b]pyridazin-6-ol]
IC50: 1 to 10 µM

CC(C)(O)c1ccc(-c2ccc3nc4c(n3n2)[C@H](c2cc(Cl)ccc2OC(F)F)NC[C@H]4O)cc1 (racemic) [Example 28, (+/−)-trans-9-(5-chloro-2-(difluoromethoxy)phenyl)-2-(4-(2-hydroxypropan-2-yl)phenyl)-6,7,8,9-tetrahydropyrido[4′,3′:4,5]imidazo[1,2-b]pyridazin-6-ol]
IC50: 1 to 10 µM

CC(C)(O)c1ccc(-c2ccc3nc4c(n3n2)[C@@H](c2cc(Cl)ccc2OC(F)F)NC[C@H]4O)cc1 (racemic) [Example 54, (+/−)-cis-9-(5-chloro-2-(difluoromethoxy)phenyl)-2-(4-(2-hydroxypropan-2-yl)phenyl)-6,7,8,9-tetrahydropyrido[4′,3′:4,5]imidazo[1,2-b]pyridazin-6-ol]
IC50: 1 to 10 µM

CC(C)Oc1ccc(-c2ccc3nc4c(n3n2)[C@@H](c2ccccc2OC(F)F)NC[C@H]4O)cc1 (racemic) [Example 32, (+/−)-cis-9-(2-(difluoromethoxy)phenyl)-2-(4-isopropoxyphenyl)-6,7,8,9-tetrahydropyrido[4′,3′:4,5]imidazo[1,2-b]pyridazin-6-ol]
IC50: 1 to 10 µM

O=C(c1ccc(-c2ccc3nc4c(n3n2)[C@@H](c2ccccc2OC(F)F)NC[C@H]4O)cc1Cl)N1CCOCC1 (racemic) [Example 47, (+/−)-cis-(2-chloro-4-(9-(2-(difluoromethoxy)phenyl)-6-hydroxy-6,7,8,9-tetrahydropyrido[4′,3′:4,5]imidazo[1,2-b]pyridazin-2-yl)phenyl)(morpholino)methanone]
IC50: 1 to 10 µM

CC(C)(O)c1ncc(-c2ccc3nc4c(n3n2)[C@@H](c2ccccc2OC(F)F)NC[C@H]4F)cn1 (racemic) [Example 10, (+/−)-cis-2-(5-(9-(2-(difluoromethoxy)phenyl)-6-fluoro-6,7,8,9-tetrahydropyrido [4′,3′:4,5]imidazo[1,2-b]pyridazin-2-yl)pyrimidin-2-yl)propan-2-ol]
IC50: 1 to 10 µM

COc1cc(F)ccc1[C@@H]1NC[C@@H](O)c2nc3ccc(-c4ccc(C(C)(C)O)cc4)nn3c21 (racemic) [Example 23, (+/−)-trans-9-(4-fluoro-2-methoxyphenyl)-2-(4-(2-hydroxypropan-2-yl)phenyl)-6,7,8,9-tetrahydropyrido[4′,3′:4,5]imidazo[1,2-b]pyridazin-6-ol]
IC50: 1 to 10 µM

COc1ccccc1COc1ccc(-c2ccc3nc4c(n3n2)[C@@H](c2ccccc2OC(F)F)NC[C@H]4O)cc1 (racemic) [Example 37, (+/−)-cis-9-(2-(difluoromethoxy)phenyl)-2-(4-((2-methoxybenzyl)oxy)phenyl)-6,7,8,9-tetrahydropyrido[4′,3′:4,5]imidazo[1,2-b]pyridazin-6-ol]
IC50: 1 to 10 µM

COc1ccc(-c2ccc3nc4c(n3n2)[C@@H](c2ccccc2OC(F)F)NC[C@H]4F)cn1 (racemic) [Example 11, (+/−)-cis-9-(2-(difluoromethoxy)phenyl)-6-fluoro-2-(6-methoxypyridin-3-yl)-6,7,8,9-tetrahydropyrido [4′,3′:4,5]imidazo[1,2-b]pyridazine]
IC50: 10 to 25 µM

CC(C)(O)c1ccc(-c2ccc3nc4c(n3n2)[C@H](c2ccccc2OC(F)F)NC[C@@H]4O)cc1 [Example 7, Cis-(6S,9S)-9-(2-(difluoromethoxy)phenyl)-2-(4-(2-hydroxypropan-2-yl)phenyl)-6,7,8,9-tetrahydropyrido[4′,3′:4,5]imidazo[1,2-b]pyridazin-6-ol]
IC50: 1 to 10 µM

(+/−)-trans-9-(4-fluoro-2-methylphenyl)-2-(4-(2-hydroxypropan-2-yl)phenyl)-6,7,8,9-tetrahydropyrido[4′,3′:4,5]imidazo[1,2-b]pyridazin-6-ol [Example 44]
IC50: < 1 µM

(+/−)-cis-9-(2-(difluoromethoxy)phenyl)-2-(4-(2-hydroxybutan-2-yl)phenyl)-6,7,8,9-tetrahydropyrido[4′,3′:4,5]imidazo[1,2-b]pyridazin-6-ol [Example 50]
IC50: 1 to 10 µM

COc1ccc(-c2ccc3nc4c(n3n2)[C@H](c2ccccc2OC(F)F)NC[C@H]4O)cn1 (racemic) [Example 51, (+/−)-trans-9-(2-(difluoromethoxy)phenyl)-2-(6-methoxypyridin-3-yl)-6,7,8,9-tetrahydropyrido[4′,3′:4,5]imidazo[1,2-b]pyridazin-6-ol]
IC50: 10 to 25 µM

CC(C)(O)c1ncc(-c2ccc3nc4c(n3n2)C(c2ccccc2OC(F)F)OCC4)cn1 (stereo not shown) [Example 63, 2-(5-(9-(2-(Difluoromethoxy)phenyl)-7,9-dihydro-6H-pyrano[4′,3′:4,5]imidazo[1,2-b]pyridazin-2-yl)pyrimidin-2-yl)propan-2-ol]
IC50: < 1 µM

CS(=O)(=O)c1ccc(-c2ccc3nc4c(n3n2)[C@@H](c2ccccc2OC(F)F)NC[C@H]4O)cc1 (racemic) [Example 41, (+/−)-cis-9-(2-(difluoromethoxy)phenyl)-2-(4-(methylsulfonyl)phenyl)-6,7,8,9-tetrahydropyrido[4′,3′:4,5]imidazo[1,2-b]pyridazin-6-ol]
IC50: 1 to 10 µM

CC(C)(O)c1ccc(-c2ccc3nc4c(n3n2)[C@H](c2ccccc2OC(F)F)NC[C@H]4O)cc1 [Example 14, trans-(6R,9S)-9-(2-(difluoromethoxy)phenyl)-2-(4-(2-hydroxypropan-2-yl)phenyl)-6,7,8,9-tetrahydropyrido[4′,3′:4,5]imidazo[1,2-b]pyridazin-6-ol]
IC50: 1 to 10 µM

COc1ccc(-c2ccc3nc4c(n3n2)C(c2ccccc2OC(F)F)NCC4)cn1 (racemic) [Example 1, (+/−)-9-(2-(Difluoromethoxy)phenyl)-2-(6-methoxypyridin-3-yl)-6,7,8,9-tetrahydropyrido[4′,3′:4,5]imidazo[1,2-b]pyridazine]
IC50: < 1 µM

Cn1cc(-c2ccc3nc4c(n3n2)C(c2ccccc2OC(F)F)OCC4)cn1 (stereo not shown) [Example 64, 9-(2-(Difluoromethoxy)phenyl)-2-(1-methyl-1H-pyrazol-4-yl)-7,9-dihydro-6H-pyrano[4′,3′:4,5]imidazo[1,2-b]pyridazine]
IC50: 1 to 10 µM

CC(C)(C)COc1ccc(-c2ccc3nc4c(n3n2)[C@@H](c2ccccc2OC(F)F)NC[C@H]4O)cc1 (racemic) [Example 42, (+/−)-cis-9-(2-(difluoromethoxy)phenyl)-2-(4-(neopentyloxy)phenyl)-6,7,8,9-tetrahydropyrido[4′,3′:4,5]imidazo[1,2-b]pyridazin-6-ol]
IC50: < 1 µM

CNS(=O)(=O)c1ccc(-c2ccc3nc4c(n3n2)[C@@H](c2ccccc2OC(F)F)NC[C@H]4O)cc1 (racemic) [Example 40, (+/−)-cis-4-(9-(2-(difluoromethoxy)phenyl)-6-hydroxy-6,7,8,9-tetrahydropyrido[4′,3′:4,5]imidazo[1,2-b]pyridazin-2-yl)-N-methylbenzenesulfonamide]
IC50: 1 to 10 µM

CC(C)(O)c1ccc(-c2ccc3nc4c(n3n2)[C@H](c2ccccc2OC(F)F)NC[C@@H]4F)cc1 (racemic) [Example 8, (+/−)-Cis-2-(4-((6S,9S)-9-(2-(difluoromethoxy)phenyl)-6-fluoro-6,7,8,9-tetrahydropyrido [4′,3′:4,5]imidazo[1,2-b]pyridazin-2-yl)phenyl)propan-2-ol]
IC50: < 1 µM

O=C(NC1CC1)c1ccc(-c2ccc3nc4c(n3n2)C(c2ccccc2OC(F)F)NCC4O)cc1 (stereo not shown) [Example 20, N-cyclopropyl-4-(9-(2-(difluoromethoxy)phenyl)-6-hydroxy-6,7,8,9-tetrahydropyrido[4′,3′:4,5]imidazo[1,2-b]pyridazin-2-yl)benzamide]
IC50: 10 to 25 µM

CC(C)(O)c1ccc(-c2ccc3nc4c(n3n2)C(c2ccccc2OC(F)F)NCC4)cc1 (racemic) [Example 2, (+/−)-2-(4-(9-(2-(Difluoromethoxy)phenyl)-6,7,8,9-tetrahydropyrido [4′,3′:4,5]imidazo[1,2-b]pyridazin-2-yl)phenyl)propan-2-ol]
IC50: < 1 µM

— patent publication US10308652B2, “Tricyclic heterocyclic compounds useful as inhibitors of TNF” (BRISTOL-MYERS SQUIBB COMPANY, priority 2015, dated 2019)
